Results published in ChEMBL document CHEMBL5727121, “Substituted [1,2,4]triazolo[4,3-a]pyrazines as BRD4 inhibitors” (2019).

Molecular target: Bromodomain-containing protein 4 (Homo sapiens, UniProt O60885)
Experiment: A mix consisting of 15 nM GST-BRD4-BD1 protein (aa 44-168) or 150 nM GST-BRD4-BD2 (aa 333-460) and 15 nM biotinylated Acetyl-Histone H4 (Lys5, 8, 12, 16) peptide is prepared in assay buffer (50 mM HEPES pH=7.4; 25 mM NaCl; 0.05% Tween 20; 0.1% bovine serum albumin (BSA); 10 mM dithiothreitol (DTT)). 6 μl of the mix is added to the compound dilutions. Subsequently, 6 μl of premixed AlphaLISA Glutathione Acceptor Beads and AlphaScreen Streptavidin Donor Beads from PerkinElmer (in assay buffer at a concentration of 10 μg/ml each) are added and the samples are incubated for 30 min at RT in the dark (shaking 300 rpm). Afterwards, the signal is measured in a PerkinElmer Envision HTS Multilabel Reader using the AlphaScreen protocol from PerkinElmer.Each plate contains negative controls where biotinylated Acetyl-Histone H4 peptide and GST-BRD4-BD1 or GST-BRD4-BD2 are left out and replaced by assay buffer. Negative control values are entered as low basis value when using the software GraphPad Prism for calculations. Furthermore, a positive control (probe molecule JQ1+ with protein/peptide mix) is pipetted. Determination of IC50 values are carried out using GraphPad Prism 3.03 software (or updates thereof).

IC50: 8 nM
SMILES: CNc1nc(-c2nn(C)c(C)c2Oc2ccccc2)cn2c(C)nnc12
